The source made the active and inactive calls. The calls are words filed in the database; no cut-off is given here.
Columns and labels:
[1] = molecular target: Beta-2 adrenergic receptor (Homo sapiens, UniProt P07550); assay: Agonist activity at human adrenergic beta2 receptor expressed in H292 cells assessed as intracellular cAMP accumulation after 1 hr; assay type: functional, cell-based
Cavia porcellus [2] = assay: Bronchodilatory activity against histamine-induced bronchoconstriction in guinea pig at ED80 intratracheally administered 2 hrs before challenge measured up to 12 hrs; assay type: functional; conditions: inhaled or nasal
Cavia porcellus [3] = assay: Bronchodilatory activity against histamine-induced bronchoconstriction in guinea pig at ED80 intratracheally administered 2 hrs before challenge measured after 2 hrs; assay type: functional, organism-based
Cavia porcellus [4] = assay: Bronchodilatory activity against histamine-induced bronchoconstriction in guinea pig at ED80 intratracheally administered 2 hrs before challenge measured up to 2 hrs; assay type: functional, organism-based
Cavia porcellus [5] = organism: Cavia porcellus; assay: Bronchodilatory activity against histamine-induced bronchospasm in guinea pig; assay type: functional, organism-based

Beta-2 adrenergic receptor, sequence (P07550 whole entry): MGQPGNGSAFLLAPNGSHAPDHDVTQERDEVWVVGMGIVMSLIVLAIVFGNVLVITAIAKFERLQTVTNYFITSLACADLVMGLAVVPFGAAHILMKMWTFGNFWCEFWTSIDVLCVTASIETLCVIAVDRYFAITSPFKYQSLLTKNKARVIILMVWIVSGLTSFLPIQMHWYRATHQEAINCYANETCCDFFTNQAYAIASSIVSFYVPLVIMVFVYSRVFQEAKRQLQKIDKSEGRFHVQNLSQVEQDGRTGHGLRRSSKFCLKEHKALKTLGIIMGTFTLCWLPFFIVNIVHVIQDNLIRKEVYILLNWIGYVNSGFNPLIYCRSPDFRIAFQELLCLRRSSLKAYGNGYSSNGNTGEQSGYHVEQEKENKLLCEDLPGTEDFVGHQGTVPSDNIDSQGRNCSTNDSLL

Row | SMILES | EC50 [1] [nM] | also measured
1 | CCCCN(CCN(C)CCc1ccc(O)c2[nH]c(=O)sc12)C(=O)CCOCCc1ccccc1 | 126 | –
2 | CCN(CCNCCc1ccc(O)c2[nH]c(=O)sc12)C(=O)CCOCCc1ccccc1 | 1 | –
3 | CCCN(CCNCCc1ccc(O)c2[nH]c(=O)sc12)C(=O)CCOCCc1ccccc1 | 7.94 | –
4 | COc1ccc(CC(C)NCC(O)c2ccc(O)c(NC=O)c2)cc1 (configuration not stated) [FORMOTEROL] | – | ED80 (Cavia porcellus [2]): 1.4 µg/kg
5 | CCCCN(CCNC[C@H](O)c1ccc(O)c2[nH]c(=O)sc12)C(=O)CCOCCc1ccccc1 | 0.794 | –
6 | COc1ccc(CCNCCN(C)C(=O)CCOCCc2ccccc2)c2sc(=O)[nH]c12 | > 1000 | –
7 | CC(C)(CNCCc1ccc(O)c2[nH]c(=O)sc12)NC(=O)CCOCCc1ccccc1 | 7.94 | –
8 | CN(CCc1ccc(O)c2[nH]c(=O)sc12)CCN(C)C(=O)CCOCCc1ccccc1 | > 1000 | –
9 | CCCCN(CCNCCc1ccc(O)c2[nH]c(=O)sc12)C(=O)CCOCCc1ccccc1 | 1.58 | Activity (Cavia porcellus [3]): inactive; Activity (Cavia porcellus [4]): Active; Activity (Cavia porcellus [5]): Dose-dependent effect; ED80 (Cavia porcellus [2]): 2.6 µg/kg
10 | O=C(CCOCCc1ccccc1)NCCNCCc1ccc(O)c2nc(O)sc12 | 1.58 | –
11 | OCc1cc(C(O)CNCCCCCCOCCCCc2ccccc2)ccc1O (configuration not stated) [SALMETEROL] | – | ED80 (Cavia porcellus [2]): 0.7 µg/kg
12 | CN(CCNCCc1ccc(O)c2[nH]c(=O)sc12)C(=O)CCOCCc1ccccc1 | 0.501 | –
13 | CC(C)N(CCNCCc1ccc(O)c2[nH]c(=O)sc12)C(=O)CCOCCc1ccccc1 | 7.94 | –
